# Measurements taken from PMC7456637, “Pharmacokinetic characterization of fluorocoxib D, a cyclooxygenase-2-targeted optical imaging agent for detection of cancer” (Journal of Biomedical Optics, 2020).
# “And” between values parts separate entries of the source, which are not always exact repeats. Identical values can stand only once.
# Assays:
# [1] = Pilot safety study: complete urinalysis; assay type: in vivo, dog
# Procedure: The animal studies were performed in the accordance with the University of Tennessee Institutional Animal Care and Use Committee (UT IACUC)-approved protocols and in an accordance with NIH guidelines. Individually housed research healthy female beagle dogs (Covance Research Product) with weights of 6.7 to 10.3 kg were used to assess the safety and pharmacokinetic parameters of fluorocoxib D administrated a dose of 1 mg/kg over 20 min intravenously (i.v.).
# For single dose safety evaluation studies, we administrated fluorocoxib D at 1 mg/kg , i.v. using a preplaced cephalic or saphenous vein catheter over 20 min to six healthy research dogs following protocol as described previously.[38] Briefly, physical examinations for signs of potential drug toxicity were performed before, during, and daily for 3 days after fluorocoxib D administration. Physical assessment included auscultation of heart and lungs, abdominal palpation, body temperature, appetite, attitude, activity levels monitoring, and other health-related events. Hypersensitivity was evaluated by direct observation of each dog during treatment for clinical signs of an allergic reaction (facial swelling, flushing, urticaria, dyspnea, scratching, and changes of heart rates). […] Laboratory evaluations of blood and urine were carried out before and 3 days after fluorocoxib D administration to monitor signs of toxicity. Blood (up to 3 ml) was collected into ethylenediaminetetraacetic acid (EDTA) and heparin-treated tubes, and urine (up to 5 ml) was collected by cystocentesis or from the floor of the runs. The laboratory evaluation consisted of a complete blood count (CBC), serum chemistry profile, and complete urinalysis. The CBC evaluated total white blood cells (WBC) and hematocrit (HCT), in addition to absolute numbers of neutrophils, lymphocytes, monocytes, eosinophils, and platelets. The plasma chemistry profile evaluated blood urea nitrogen (BUN), creatinine, proteins (albumin, globulins, and total proteins), alanine aminotransferase (ALT), total bilirubin, glucose, and electrolytes. The complete urinalysis evaluated urine proteins, glucose, and ketones; a sediment examination and urine-specific gravity were validated as well for any possible signs of renal toxicity of fluorocoxib D. All laboratory tests were carried out at the Veterinary Medical Center of the University of Tennessee in Knoxville.
# [2] = system: COX-2-expressing human 5637 cancer cells; test: Fluorocoxib D uptake by human 5637 cancer cells (fluorescence microscopy); assay type: cell-based; conditions: 50 nM, 30 min, COX-2-positive 5637 cells
# Procedure: Human 5637 cells were seeded on four-chamber slides (Nalge Nunc, Rochester, New York) and grown until reached 70% to 80% confluence. […] The nuclei of cells were stained with DAPI for 10 min, and slides were mounted using an aqueous mounting medium. Images of cells were captured by a Leica DMi8 fluorescent microscope with Hamamatsu Orca Flash 4.0LT Digital CMOS Camera (Leica Microsystems Inc., Chicago, Illinois) using Leica Application Suite X software (LASX, Leica).
# [3] = system: COX-2-expressing head and neck cancer (HNC); test: Fluorocoxib D uptake in HNC mass during rhinoscopy in a client-owned dog; assay type: in vivo; conditions: for Uptake of fluorocoxib D in HNC during rhinoscopy: 1 mg/kg i.v. over 20 min, half hour uptake, client-owned dog, chondrosarcoma
# Procedure: The owners signed a consent form for enrolling their dog for our proof-of principal study. A nine-year old female-spayed Golden Retriever dog weighing 35 kg was presented for an acute onset of unilateral right-sided epistaxis of 5-day duration. Previous medical history included a grade 2 soft tissue sarcoma with a high mitotic index that was completely excised from her ventral neck ∼2 years prior with no signs of regrowth. Rhinoscopy and biopsy procedure in the dog was performed by board-certified veterinary internal specialists (SO and JS) in an accordance with a standard veterinary care and the UT IACUC-approved protocol. Fluorocoxib D was administrated i.v. 1 mg/kg over 20 min using a catheter, followed by a half hour uptake before initiation of rhinoscopy procedure. Rhinoscopy was used to obtain biopsy samples guided by uptaken fluorocoxib D in the computed tomography (CT)-identified head and neck cancer (HNC) mass. Rhinoscopy and biopsy procedures in dog were performed under general anesthesia using a 2.7-mm, 30-deg, 18-cm rigid scope (Karl Storz Veterinary Endoscopy) attached to a TRICAM PDD as described previously[38] using a custom-designed filter system for detection of fluorocoxib D ( λem 645±50 nm ). After complete recovery from the rhinoscopic examination and anesthesia in a quiet room, the client-owned dog was returned to its owners. The heat map images with adjusted hue saturation of fluorocoxib D signal (pink color) from normal tissue (upper three images) and HNC tumor (lower three images) obtained during rhinoscopy were generated using Adobe Photoshop CC2019 software ([…]) in order to better visualize the tumor and its margins. […]
# The biopsy samples obtained during rhinoscopy procedures in dogs were formalin-fixed and paraffin-embedded and sectioned at 7-μm thin sections for histology and immunohistochemistry analysis for detection of COX-2 and Ki67 expression as described previously.[38] […] The tissue specimens were evaluated using a Leitz DMRB microscope. […]
# [4] = system: COX1; conditions: cited from earlier work
# [5] = system: COX2; conditions: cited from earlier work
# [6] = 3 days after single dose 1 mg/kg i.v., individual dogs, reference NEG, 1 mg/kg
compound,measurement,setting,value
"COc1ccc2c(c1)c(CC(=O)NCCCCNC(=O)c1ccc(C3=c4cc5c6c(c4Oc4c3cc3c7c4CCCN7CCC3)CCC[N+]=6CCC5)cc1)c(C)n2C(=O)c1ccc(Cl)cc1 [Fluorocoxib D, N -[(rhodamin-X-yl)but-4-yl]-2-[1-(4-chlorobenzoyl)-5-methoxy-2-methyl-1H-indol-3-yl]acetamide]","SP. GRAV (urine-specific gravity), After","[1]; 3 days after single dose 1 mg/kg i.v., individual dogs, 1 mg/kg",1.03 and 1.039 (2×) and 1.032 and 1.044
same,"GLU-COSE (urine), After","[1]; 3 days after single dose 1 mg/kg i.v., individual dogs, reference NEG",NEG
same,"PRO-TEIN (urine), After","[1]; 3 days after single dose 1 mg/kg i.v., individual dogs, reference NEG-1+, 1 mg/kg",NEG (3×) and TRACE
same,"BLD/Hb (urine blood/hemoglobin), After",[1]; [6],NEG (2×) and TRACE (2×)
same,"KETO-NES (urine), After",[1]; [6],NEG (3×) and TRACE (2×)
same,"PH (urine pH), After","[1]; 3 days after single dose 1 mg/kg i.v., individual dogs, reference range 5 to 9, 1 mg/kg",>9 H and 6 (3×) and 5.5
same,Urine bacteria finding 3 days after administration,"[1]; two dogs (#4 and #6), no pyuria, not thought relevant to toxicity",bacteriuria
same,Uptake of fluorocoxib D by 5637 cells,[2],Selective uptake
same,Uptake of fluorocoxib D in HNC during rhinoscopy,[3],uptake was detected
same,Uptake of fluorocoxib D in HNC during rhinoscopy,[3]; listed as fluorocoxib D,Specific uptake of fluorocoxib D was detected
same,Tumor-to-normal tissue ratio (T/N ratio) of fluorocoxib D signal,"[3]; 1 mg/kg i.v., canine HNC, ImageJ, normal n=804 and tumor ROI n=866",3.7±0.9
same,IC50,[4],4000 nM
same,IC50,[5],230 nM
same,Ratio (COX1/COX2),[5]; ratio of IC50 values,17.4
